The values that follow come from patent US20230190852A1, “COMPOSITIONS AND METHODS FOR JOINT HEALTH” (Unigen, Inc., priority 2013, published 2023).

Structures are written as SMILES.

The target of assay [1] is T1, BKB1 receptor (Homo sapiens, UniProt P46663).
T1 construct: Membranes from human IMR-90 lung fibroblasts, stimulated with IL-1β; endogenous in cells; host or cells: human IMR-90 lung fibroblasts, IL-1β stimulated (membranes)
T1 sequence (P46663 1-353): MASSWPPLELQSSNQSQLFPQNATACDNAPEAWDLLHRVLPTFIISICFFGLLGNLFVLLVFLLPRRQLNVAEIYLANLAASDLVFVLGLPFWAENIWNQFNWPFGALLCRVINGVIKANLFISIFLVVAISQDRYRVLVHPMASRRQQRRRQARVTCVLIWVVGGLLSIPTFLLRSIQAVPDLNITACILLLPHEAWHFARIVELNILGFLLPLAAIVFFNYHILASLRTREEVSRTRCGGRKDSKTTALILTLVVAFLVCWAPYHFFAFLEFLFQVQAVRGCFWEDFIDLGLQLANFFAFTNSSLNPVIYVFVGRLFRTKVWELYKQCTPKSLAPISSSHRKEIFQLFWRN
The assay is described as follows: Bradykinin B1 (BKB1) radioligand binding assay. As for the experimental part:
Membranes from human IMR-90 lung fibroblasts, stimulated with IL-1β in modified HEPES buffer (PH=7.4), were incubated with a test sample in the presence of 0.9 nM [^3H](Des-[…])-Kallidin for 60 minutes at room temperature. After incubation, membranes were filtered and washed five times with modified DPBS buffer (pH=7.4). Samples were scintillation counted to determine the amount of specifically bound to the BKB1 receptor containing membrane. […] BKB1 binding assay, as described in Example 17, was used to test curcumin compound isolated from a Curcuma longa extract (Compound 11), as well as commercially available curcumin purchased from Sigma-Aldrich (C1386). Curcumin was tested at final concentrations ranging from 200 μM to 5 nM. Binding curves were plotted by non-linear regression fit (using GraphPad Prizm software). Ki values were computed using Cheng-Prusoff algorithm. In addition, inhibition of BKB2 receptor binding activity by curcumin was examined with methods similar to those described in Example 17 for the BKB1 receptor with some modifications. […] Composition of Assay Buffer: 24 mM TES, pH 6.8, 1 mM 1.10-Phenanthrioline, 0.3% BSA. • 2. Source of BKb2R: CHO-K1 cells expressing recombinant human BKb2R • 3. Ligand: [^3H]-Bradykinin 0.2 nM. • 4. Incubation time: 90 min RT. • 5. Reading: TopCount.

Assay [2] has as its target T2, recombinant human BKb2R (Homo sapiens, UniProt P30411).
T2 construct: expressed in transfected cells; host or cells: CHO-K1
T2 sequence (P30411 1-391): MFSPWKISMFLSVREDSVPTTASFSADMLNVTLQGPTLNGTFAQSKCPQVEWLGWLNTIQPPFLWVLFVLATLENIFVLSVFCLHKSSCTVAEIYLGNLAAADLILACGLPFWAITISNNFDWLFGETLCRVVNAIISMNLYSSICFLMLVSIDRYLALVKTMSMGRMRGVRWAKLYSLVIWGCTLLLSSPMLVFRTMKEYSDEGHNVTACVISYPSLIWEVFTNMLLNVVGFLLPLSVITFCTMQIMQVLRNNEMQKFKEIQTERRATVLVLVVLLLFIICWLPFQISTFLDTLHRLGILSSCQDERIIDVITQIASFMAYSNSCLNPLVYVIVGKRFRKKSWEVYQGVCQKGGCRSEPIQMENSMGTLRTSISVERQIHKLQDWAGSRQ
The assay is described as follows: Bradykinin Radioligand Binding Assay (BKB2). As to conditions: manually calculated by Cheng-Prusoff equation; read-out: BKB2 Ki (μg/ml) (converted). How it is done: BKB1 binding assay, as described in Example 17, was used to test curcumin compound isolated from a Curcuma longa extract (Compound 11), as well as commercially available curcumin purchased from Sigma-Aldrich (C1386). Curcumin was tested at final concentrations ranging from 200 μM to 5 nM. Binding curves were plotted by non-linear regression fit (using GraphPad Prizm software). Ki values were computed using Cheng-Prusoff algorithm. In addition, inhibition of BKB2 receptor binding activity by curcumin was examined with methods similar to those described in Example 17 for the BKB1 receptor with some modifications. Bradykinin Radioligand Binding Assay (BKB2) was conducted using a standard assay under the following conditions: • 1. Composition of Assay Buffer: 24 mM TES, pH 6.8, 1 mM 1.10-Phenanthrioline, 0.3% BSA. • 2. Source of BKb2R: CHO-K1 cells expressing recombinant human BKb2R • 3. Ligand: [^3H]-Bradykinin 0.2 nM. • 4. Incubation time: 90 min RT. • 5. Reading: TopCount.
Commercial curcumin (Sigma, C1386) was tested at concentrations ranging from 200 μM to 5 nM. […] Ki was manually calculated by using Cheng-Prusoff equation.

For assay [3], the system named is CD-1 mice. The assay is described as follows: Nociceptive behavior model elicited by intraplantar injection of formalin. The class given is in vivo. How it is done:
Mice (n=6 per group) were habituated under inverted Plexiglas observation chamber for 30 minutes to allow them to acclimatize to their surroundings. […] Mice were immediately transferred to their individual observational chamber. […] Mirrors positioned behind the chambers enabled observation of the right hind paw when it was obscured from direct view. […] These behavioral reactions observed for the first five minutes are due to direct action of the irritant on sensory nerve endings where is believed to be as a result of inflammation in the later phase. […] Mice were treated with curcumin (50, 100, 150 or 200 mg/kg) or ibuprofen (200 mg/kg) orally half an hour before intraplantar formalin injection.

Regarding `COc1cc(/C=C/C(=O)CC(=O)/C=C/c2ccc(O)c(OC)c2)ccc1O` [Curcumin], the “selectivity BKB1 vs BKB2 binding” value in assay [1] is “selective BKB1 antagonist”. Further, the Ki in assay [1] (Cheng-Prusoff, read-out: BKB1 Ki (μg/ml) (converted)) was 5.9 µM; in assay [2] it was 157 µM. Moreover, the “Pain Sensitivity 20-40 Minutes after Formalin Injection % ↓ vs. Vehicle” value in assay [3] (50 mg/kg oral) was 53.1%; in assay [3] (100 mg/kg oral) it was 52.5%; in assay [3] (150 mg/kg oral), 60.3%; in assay [3] (200 mg/kg oral), 74.6%.
